Values quoted from earlier work, collected in patent US20170348252A1, “Preparation and Use of Ketamine Derivatives and Ketamine Modifiers in the Treatment of Pain” (priority 2016, published 2017).

Conditions: relative to thiopental; from Anirudda Pai et al. 2007

CNC1(c2ccccc2Cl)CCCCC1=O (racemic) [Ketamine, 2-(2-chlorophenyl)-2-methylamino cyclohexanone]
lipid solubility: 5-10 times that of thiopental
